Experimental data published in patent US7816558B2, “Triarylcarboxylic acid derivative” (Astellas Pharma Inc., priority 2005, dated 2010).

Experiments:
[1] = test system: serum uric acid level; assay: Hypouricemic effect (rat oxonate-induced high uric acid model), test (A); format: in vivo; details: Wistar rats, potassium oxonate 250 mg/kg s.c., 2 hours after oral administration, normal group 100% inhibition, control group 0%
Method: (A) For evaluating the serum uric acid level depressing capability of the compounds of the present invention, the following test was carried out using an oxonate-induced high uric acid model.
A 0.5% methyl cellulose liquid (normal group, control group) or a test compound suspended in 0.5% methyl cellulose (compound-administered group) was orally administered to 5 or 6-week-age male Wistar rats. One hour before blood collection, saline (normal group), or 250 mg/kg of potassium oxonate suspended in saline (control group, compound-administered group) was subcutaneously administered to the rats. 2 hours or 18 hours after the compound or methyl cellulose liquid administration, the blood was collected from each rat. The serum was separated from the collected blood, and the serum uric acid level was measured according to a phosphorus tungstate method (Am. J. Clin. Pathol., 28, 152-, 1957).
This test confirmed the excellent hypouricemic effect of the compounds of the present invention. For example, ED50 of the compound of Example 136 was 0.2 mg/kg in 2 hours after oral administration (for this, the serum uric acid level of the normal group was defined as 100% inhibition and the serum uric acid level of the control group was as 0% inhibition).

[2] = target: T1, xanthine oxidase (derived from butter milk, by Sigma) (Bos taurus, UniProt P80457); assay: Xanthine oxidase inhibiting activity; format: biochemical; details: pterin 5 μM as substrate, isoxanthopterin light emission, room temperature; read-out: IC50 (concentration of the test compound for 50% inhibition)
T1 construct: xanthine oxidase (derived from butter milk, by Sigma); purchased Sigma; host or cells: butter milk (natural source)
Method: A test compound was dissolved in DMSO (by Nacalai) to have a concentration of 10 mM, and then just before use, its concentration was adjusted to a desired one.
The xanthine oxidase inhibitory activity of the compound of the present invention was evaluated according to a partly modified method of a method described in a reference “Free Radic. Biol. Med. 6, 607-615, 1992”. Concretely, xanthine oxidase (derived from butter milk, by Sigma) was mixed with 50 mM phosphate buffer to be 0.03 units/ml, and applied to a 96-well plate in an amount of […]. The test compound diluted to have a final concentration was added to the plate in an amount of 2 μl/well, and processed at room temperature for 20 minutes. Pterin (by Sigma) was added to it to have a final concentration of 5 μM in an amount of 50 μl/well, and reacted at room temperature for 10 minutes. Under a condition of excitation at 345 nm and emission at […] (pterin is oxidized by xanthine oxidase to give isoxanthopterin, and under the condition it emits light), the sample was analyzed using a microplate reader sapphire (by Tacan).
The light emission by isoxanthopterin in the presence or absence of xanthine oxidase was defined as 0% inhibition and 100% inhibition, respectively, and the concentration (IC50) of the test compound for 50% inhibition was computed.

T1 sequence (P80457 whole entry): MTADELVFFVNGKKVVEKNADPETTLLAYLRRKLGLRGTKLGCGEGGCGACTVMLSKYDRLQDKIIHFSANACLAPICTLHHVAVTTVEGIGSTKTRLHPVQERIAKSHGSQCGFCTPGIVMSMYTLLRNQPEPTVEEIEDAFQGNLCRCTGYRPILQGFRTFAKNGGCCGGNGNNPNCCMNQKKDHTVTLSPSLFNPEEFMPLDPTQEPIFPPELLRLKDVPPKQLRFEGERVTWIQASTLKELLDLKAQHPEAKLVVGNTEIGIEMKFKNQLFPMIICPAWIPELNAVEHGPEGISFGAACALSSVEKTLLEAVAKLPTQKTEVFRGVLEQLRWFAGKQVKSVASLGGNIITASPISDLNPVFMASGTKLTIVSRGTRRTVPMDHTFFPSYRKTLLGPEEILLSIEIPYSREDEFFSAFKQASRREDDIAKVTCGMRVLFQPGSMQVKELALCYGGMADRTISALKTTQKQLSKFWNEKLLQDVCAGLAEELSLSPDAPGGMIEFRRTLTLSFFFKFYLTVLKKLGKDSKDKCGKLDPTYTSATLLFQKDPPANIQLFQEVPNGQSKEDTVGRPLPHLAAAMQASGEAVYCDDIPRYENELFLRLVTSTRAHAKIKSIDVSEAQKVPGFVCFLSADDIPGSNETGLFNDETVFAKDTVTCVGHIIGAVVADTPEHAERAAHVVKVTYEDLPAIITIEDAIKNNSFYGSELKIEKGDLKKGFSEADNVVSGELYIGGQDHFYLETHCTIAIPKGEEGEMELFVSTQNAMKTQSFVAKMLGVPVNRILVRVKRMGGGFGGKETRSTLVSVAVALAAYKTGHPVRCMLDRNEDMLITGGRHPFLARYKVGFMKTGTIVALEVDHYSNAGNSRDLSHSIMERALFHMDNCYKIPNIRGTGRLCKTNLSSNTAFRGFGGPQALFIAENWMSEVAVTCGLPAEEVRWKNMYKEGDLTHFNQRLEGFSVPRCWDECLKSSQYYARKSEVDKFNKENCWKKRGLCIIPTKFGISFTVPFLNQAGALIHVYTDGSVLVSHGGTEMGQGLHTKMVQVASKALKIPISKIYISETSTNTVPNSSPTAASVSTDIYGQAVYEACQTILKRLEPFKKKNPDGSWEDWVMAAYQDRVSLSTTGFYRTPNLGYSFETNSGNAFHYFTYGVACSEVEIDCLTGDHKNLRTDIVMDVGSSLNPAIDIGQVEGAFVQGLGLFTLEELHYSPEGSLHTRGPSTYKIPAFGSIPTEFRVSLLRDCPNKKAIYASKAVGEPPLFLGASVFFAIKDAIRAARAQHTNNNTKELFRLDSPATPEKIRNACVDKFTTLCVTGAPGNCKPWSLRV

Row | IC50 [2] [nM] | SMILES | ED50 [1] [mg/kg]
1 | – | N#Cc1cc(-c2cc(C(=O)[O-])ccn2)ccc1-c1ccccc1.[Na+] [Example 1, sodium 2-(2-cyanobiphenyl-4-yl)isonicotinate] | < 1
2 | – | N#Cc1cc(-c2ccc(C(=O)O)s2)ccc1-c1ccccc1 [Example 68, 5-(2-cyanobiphenyl-4-yl)thiophene-2-carboxylic acid] | < 1
3 | 0.5 | CC(C)(C)c1ccc(-c2ccc(-c3ccc(C(=O)O)s3)cc2C#N)cc1 [Example 94] | –
4 | – | Cc1nc(-c2ccc(-c3ccccc3)c(C#N)c2)sc1C(=O)O [Example 123, 2-(2-cyanobiphenyl-4-yl)-4-methyl-1,3-thiazole-5-carboxylic acid] | < 1
5 | – | Cc1ccc(-c2ccc(-c3nc(C)c(C(=O)O)s3)cc2C#N)cc1 [Example 124, 2-(2-cyano-4′-methylbiphenyl-4-yl)-4-methyl-1,3-thiazole-5-carboxylic acid] | < 1
6 | – | COc1ccc(-c2ccc(-c3nc(C)c(C(=O)O)s3)cc2C#N)cc1 [Example 127, 2-(2-cyano-4′-methoxybiphenyl-4-yl)-4-methyl-1,3-thiazole-5-carboxylic acid] | < 1
7 | 0.9 | Cc1cccc(-c2ccc(-c3nc(C)c(C(=O)O)s3)cc2C#N)c1 [Example 129, 2-(2-cyano-3′-methylbiphenyl-4-yl)-4-methyl-1,3-thiazole-5-carboxylic acid] | –
8 | – | N#Cc1cc(-c2ncc(C(=O)O)s2)ccc1-c1ccccc1 [Example 136, 2-(2-cyanobiphenyl-4-yl)-1,3-thiazole-5-carboxylic acid] | 0.2
9 | – | N#Cc1cc(-n2cc(C(=O)O)cn2)ccc1-c1ccccc1 [Example 137, 1-(2-cyanobiphenyl-4-yl)-1H-pyrazole-4-carboxylic acid] | < 1
10 | 1.4 | COc1ccc(-c2ccc(-n3cc(C(=O)O)cn3)cc2C#N)cc1 [Example 140, 1-(2-cyano-4′-methoxybiphenyl-4-yl)-1H-pyrazole-4-carboxylic acid] | < 1
11 | – | Cn1nc(-c2ccc(-c3ccccc3)c(C#N)c2)cc1C(=O)O [Example 146, 3-(2-cyanobiphenyl-4-yl)-1-methyl-1H-pyrazole-5-carboxylic acid] | < 1
